Laboratory results reported in the NIST ThermoML archive (doi:10.1021/je1003065).
± gives the expanded uncertainty stated by the source.

Assay: mn = molality of the nth substance listed, in mol/kg
Conditions: Liquid, Vibrating tube method

[Br-].[Li+] [lithium bromide] + CCO
Conditions	mass density [kg/m3]
323.15 K, 20023 kPa, m1 = 0.2335	797.12 ± 1.6
323.15 K, 29784 kPa, m1 = 2.833	953.72 ± 1.9
323.15 K, 29928 kPa, m1 = 0.9499	848.61 ± 1.7
323.15 K, 29975 kPa, m1 = 1.462	878.73 ± 1.8
323.15 K, 29978 kPa, m1 = 0.5972	827.54 ± 1.7
323.15 K, 29986 kPa, m1 = 2.272	924.09 ± 1.9
323.15 K, 39784 kPa, m1 = 0.9499	855.75 ± 1.7
323.15 K, 39926 kPa, m1 = 0.2335	812.55 ± 1.7
323.15 K, 39984 kPa, m1 = 3.368	987.61 ± 2
323.15 K, 49921 kPa, m1 = 2.272	937 ± 1.9
323.15 K, 49926 kPa, m1 = 1.462	892.13 ± 1.8
323.15 K, 49928 kPa, m1 = 0.9499	862.68 ± 1.8
323.15 K, 50001 kPa, m1 = 0.5972	841.84 ± 1.7
323.15 K, 50021 kPa, m1 = 2.833	966.58 ± 1.9
323.15 K, 59924 kPa, m1 = 3.368	999.37 ± 2
323.15 K, 59926 kPa, m1 = 0.2335	825.76 ± 1.7
323.15 K, 59957 kPa, m1 = 1.462	898.25 ± 1.8
323.15 K, 59986 kPa, m1 = 2.833	972.34 ± 1.9
323.15 K, 60024 kPa, m1 = 0.9499	869.15 ± 1.8
323.15 K, 69794 kPa, m1 = 0.9499	875 ± 1.8
323.15 K, 69794 kPa, m1 = 2.272	948.43 ± 1.9
323.15 K, 69923 kPa, m1 = 0.5972	854.32 ± 1.8
323.15 K, 79923 kPa, m1 = 1.462	909.56 ± 1.9
323.15 K, 79924 kPa, m1 = 0.2335	837.48 ± 1.8
323.15 K, 79926 kPa, m1 = 3.368	1010.05 ± 2
323.15 K, 79935 kPa, m1 = 0.9499	880.66 ± 1.8
323.15 K, 79953 kPa, m1 = 2.272	953.9 ± 1.9
323.15 K, 79956 kPa, m1 = 2.833	983.13 ± 2
323.15 K, 89924 kPa, m1 = 3.368	1015.15 ± 2
323.15 K, 89925 kPa, m1 = 0.9499	885.81 ± 1.8
323.15 K, 89926 kPa, m1 = 2.272	959.13 ± 1.9
323.15 K, 89956 kPa, m1 = 0.2335	843.04 ± 1.8
323.15 K, 89958 kPa, m1 = 2.833	988.29 ± 2
323.15 K, 90021 kPa, m1 = 0.5972	865.14 ± 1.8
323.15 K, 99678 kPa, m1 = 2.833	993.25 ± 2
323.15 K, 99745 kPa, m1 = 0.5972	869.74 ± 1.9
323.15 K, 99956 kPa, m1 = 3.368	1020.21 ± 2.1
323.15 K, 99957 kPa, m1 = 1.462	920.17 ± 1.9
323.15 K, 99965 kPa, m1 = 0.2335	847.91 ± 1.8
323.15 K, 99969 kPa, m1 = 0.9499	890.57 ± 1.9
323.15 K, 99985 kPa, m1 = 2.272	964.32 ± 2
323.16 K, 10058 kPa, m1 = 3.368	966.55 ± 1.9
323.16 K, 19945 kPa, m1 = 0.5972	819.71 ± 1.7
323.16 K, 19956 kPa, m1 = 2.272	916.87 ± 1.8
323.16 K, 20003 kPa, m1 = 1.462	871.29 ± 1.8
323.16 K, 29921 kPa, m1 = 0.2335	805.03 ± 1.6
323.16 K, 39928 kPa, m1 = 2.833	960.39 ± 1.9
323.16 K, 49957 kPa, m1 = 3.368	993.67 ± 2
323.16 K, 60002 kPa, m1 = 2.272	942.94 ± 1.9
323.16 K, 70004 kPa, m1 = 0.2335	831.8 ± 1.8
323.16 K, 89956 kPa, m1 = 1.462	914.93 ± 1.9
323.17 K, 39926 kPa, m1 = 0.5972	834.87 ± 1.7
323.18 K, 59974 kPa, m1 = 0.5972	848.31 ± 1.8
